For data set [1], the system named is Hs578T. Kind of data set: Cell vitality assay (ATP assay, CellTiter-Glo). The following applies: Homo sapiens, Hs-578T, 72 h. Type of data set: cell-based. A digest of the protocol: (§1)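 1000 cells/well were exposed to compound at 12.5 μM down to 0.195 μM (twofold steps) or DMSO for 72 h. ATP was then measured by luminescence after 10 min reagent lysis at room temperature. IC50 was taken as the concentration giving 50% of the DMSO-control ATP level.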
(ATP-based viability assays read luminescence as a measure of living cells.)

For data set [2], the system named is SF126. Kind of data set: Cell vitality assay (ATP assay, CellTiter-Glo). In kind it is cell-based. As to conditions: Homo sapiens, SF-126. A digest of the protocol: as §1
For data set [3], the system named is U118. Kind of data set: Cell vitality assay (ATP assay, CellTiter-Glo). Type of data set: cell-based. The method, boiled down:
as §1

Data set [4] deals with Hs578T. Kind of data set: Wound healing migration assay. Type of data set: cell-based. The following applies: Homo sapiens, Hs-578T; HS578T cell line; Table Ib. The method, boiled down:
(§2)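 Cells seeded at 150000/24 well, grown to monolayer overnight, scratched with a pipette tip, then treated with compound at 12.5, 6.25 or 3.125 μM versus DMSO. Stopped by crystal violet fixation at 48-72 h once control wounds closed; IC50 taken as 50% wound size between t0 and t48 or t72.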

Data set [5] relates to indicated cell line. Kind of data set: Wound healing migration assay (Table IV). In kind it is cell-based. The following applies: compounds at 12.5, 6.25, 3.125 μM, 48 h-72 h. The method, boiled down:
as §2

Data set [6] relates to A172. Kind of data set: Matrigel outgrowth assay/branching assay. As to conditions: Homo sapiens, A 172, Table Vb, read-out: Total branching inhibition in Matrigel A172. Type of data set: cell-based. A digest of the protocol:
(§3)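 Read-out: microscopic images of invasive branching structures at 48 h, 72 h and 96 h. Cells sat on a 3 mg/ml Matrigel layer (set 1 h, 37° C) with compound at 3.125, 1.56 and 0.78 μM or DMSO. A concentration counts as positive only with complete branching inhibition.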

Data set [7] concerns Hs578T. Kind of data set: Matrigel outgrowth assay/branching assay. Type of data set: cell-based. The following applies: Homo sapiens, Hs-578T; HS578T cell line; Table Ib; read-out: Total branching inhibition in Matrigel HS578T. The method, boiled down:
as §3

Data set [8] has as its system SF126. Kind of data set: Matrigel outgrowth assay/branching assay. The following applies: Homo sapiens, SF-126, Table Vb, read-out: Total branching inhibition in Matrigel SF126. In kind it is cell-based. The method, boiled down: as §3
Data set [9] has as its system U118. Kind of data set: Matrigel outgrowth assay/branching assay. The following applies: Table Vb, read-out: Total branching inhibition in Matrigel U118. Type of data set: cell-based. The method, boiled down:
as §3

Data set [10] has as its system tumor cell. Kind of data set: Matrigel outgrowth assay/branching assay (Table Va). Type of data set: cell-based. A digest of the protocol: as §3
Setting [11] is: HS578T cell line, Table Ib, read-out: IC50 ATP-Assay HS578T after 72 h.
Setting [12] is: SF126, 72 h, Table IIa, read-out: IC50 ATP-Assay after 72 h SF126.
[13] abbreviates: cell vitality assay, SF126, Table IIb, read-out: IC50 SF126.
The mark [14] stands for this setting: U118, 72 h, Table IIa, read-out: IC50 ATP-Assay after 72 h U118.
The mark [15] stands for this setting: cell vitality assay, U118, Table IIc, read-out: IC50 U118.
The mark [16] stands for this setting: Homo sapiens, A 172, A172 cells, read-out: IC50 Wound healing Assay A172.
The mark [17] stands for this setting: Homo sapiens, SF-126, SF126 cells, read-out: IC50 Wound healing Assay SF126.
Where [18] appears, read: Homo sapiens, C8161 cells, read-out: IC50 Wound healing Assay C8161.
Where [19] appears, read: U118 cells, read-out: IC50 Wound healing Assay U118.
Where [20] appears, read: Homo sapiens, C8161 cells, read-out: Total branching inhibition in Matrigel C8161.
Where [21] appears, read: Homo sapiens, Hs-578T, Hs578T cells, read-out: Total branching inhibition in Matrigel Hs578T.
Setting [22] is: U118 cells, read-out: Total branching inhibition in Matrigel U118.
The mark [23] stands for this setting: U138 cells, read-out: Total branching inhibition in Matrigel U138.
[24] abbreviates: SF763 cells, read-out: IC50 Wound healing Assay SF763.

Where two headings read alike, the source gives them in different places.

Consider five compounds from patent US9169241B2, “Quinolinyloxyphenylsulfonamides” (Max-Planck-Gesellschaft Zur Forderung der Wissenschaften …, priority 2009, dated 2015).

In the case of `COc1cc2c(Oc3ccc(NS(=O)(=O)c4cc(F)ccc4F)cc3F)ccnc2cc1OCCCN1CCN(C)CC1` [Example 12, 2,5-Difluoro-N-(3-fluoro-4-{6-methoxy-7-[3-(4-methyl-piperazin-1-yl)-propoxy]-quinolin-4-yloxy}-phenyl)-benzenesulfonamide], the IC50 in data set [1] (setting [11]), in data set [2] (setting [12]), in data set [2] (setting [13]), in data set [3] (setting [14]), in [3] (setting [15]) and in data set [4] was not above 12.5 µM each time. The IC50 in data set [5] (setting [16]) was not above 12.5 µM; in [5] (setting [17]), not above 12.5 µM; in [5] (setting [18]), not above 12.5 µM; in data set [5] (setting [19]), not above 12.5 µM; in [7], not above 10 µM; in data set [10] (setting [20]), not above 5 µM. Further, the IC50 in [10] (setting [21]), in [10] (setting [22]) and in [10] (setting [23]) was not above 5 µM in each case. Further, the IC100 in [6], in [8] and in data set [9] was not above 12.5 µM in each case.
Turning to `COc1cc2c(Oc3ccc(NS(=O)(=O)c4cccc(Oc5ccccc5)c4)cc3F)ccnc2cc1OCCCN1CCN(C)CC1` [Example 14, N-(3-Fluoro-4-{6-methoxy-7-[3-(4-methyl-piperazin-1-yl)-propoxy]-quinolin-4-yloxy}-phenyl)-3-phenoxy-benzenesulfonamide], the melting point (as a rule, the temperature of the solid-liquid transition) lay in the range of 140 to 141 °C. In data set [2] (setting [12]), the IC50 was not above 12.5 µM. Besides, the IC50 in data set [3] (setting [14]) is 12.5 to 50 µM. Further, the IC50 in data set [5] (setting [18]) is 12.5 to 50 µM. The IC50 in [5] (setting [24]) was in the range of 12.5 to 50 µM. The IC100 in data set [9] is not above 12.5 µM. The IC50 in [10] (setting [20]) lay within 5 to 50 µM. For the same compound, the IC50 in data set [10] (setting [21]) fell in the range of 5 to 50 µM. Further, in data set [10] (setting [22]), the IC50 is not above 5 µM. Also, the IC50 in data set [10] (setting [23]) was 5 to 50 µM.
In the case of `COc1cc2c(Oc3ccc(NS(=O)(=O)c4ccccc4C(F)(F)F)cc3F)ccnc2cc1OCCCN1CCN(C)CC1` [Example 24, N-(3-Fluoro-4-{6-methoxy-7-[3-(4-methyl-piperazin-1-yl)-propoxy]-quinolin-4-yloxy}-phenyl)-2-trifluoromethyl-benzenesulfonamide], the melting point was in the range of 102 to 106 °C. In addition, the IC50 in data set [2] (setting [13]) was not above 12.5 µM. Further, in data set [3] (setting [15]), the IC50 is 12.5 to 50 µM. The IC50 in [5] (setting [18]) is not above 12.5 µM. In data set [6], the IC100 is not above 12.5 µM. The IC100 in data set [8] was not above 12.5 µM. Besides, in data set [9], the IC100 is not above 12.5 µM. Further, the IC50 in [10] (setting [20]) is not above 5 µM. The IC50 in data set [10] (setting [21]) is not above 5 µM. Moreover, the IC50 in data set [10] (setting [22]) was not above 5 µM. Besides, in data set [10] (setting [23]), the IC50 lay within 5 to 50 µM.
The compound `COc1cc2c(Oc3ccc(NS(=O)(=O)c4ccc(Cl)s4)cc3F)ccnc2cc1OCCCN1CCCC(C)C1` (stereo not drawn) [Example 63, 5-Chloro-thiophene-2-sulfonic acid (3-fluoro-4-{6-methoxy-7-[3-(3-methyl-piperidin-1-yl)-propoxy]-quinolin-4-yloxy}-phenyl)-amide] showed a melting point of 100 to 103 °C. In data set [1] (setting [11]), the IC50 was not above 12.5 µM. The IC50 in data set [1] (Hs578T, Table IIa, read-out: IC50 ATP-Assay after 72 h Hs578T) was not above 12.5 µM. In addition, in data set [2] (setting [12]), the IC50 was in the range of 12.5 to 50 µM. Further, in data set [3] (setting [14]), the IC50 is not above 12.5 µM. Moreover, the IC50 in [4] is not above 12.5 µM. For the same compound, in data set [5] (setting [18]), the IC50 fell in the range of 12.5 to 50 µM. For the same compound, the IC50 in data set [5] (setting [24]) was not above 12.5 µM. Also, the IC50 in data set [7] is not above 10 µM. Further, in data set [10] (setting [20]), the IC50 was in the range of 5 to 50 µM. For the same compound, the IC50 in data set [10] (setting [21]) is not above 5 µM. Moreover, in data set [10] (setting [22]), the IC50 was not above 5 µM. Moreover, the IC50 in [10] (setting [23]) was not above 5 µM.
Consider `COc1cc2c(Oc3ccc(NS(=O)(=O)c4c(F)cccc4F)cc3F)ccnc2cc1OCCCN1CCN(C)CC1` [Example 110, 2,6-Difluoro-N-(3-fluoro-4-{6-methoxy-7-[3-(4-methyl-piperazin-1-yl)-propoxy]-quinolin-4-yloxy}-phenyl)-benzenesulfonamide], for which the IC50 in data set [1] (setting [11]), in data set [2] (setting [12]), in data set [3] (setting [14]), in data set [4], in [5] (setting [16]) and in data set [5] (setting [17]) was not above 12.5 µM throughout. Moreover, the IC50 was not above 12.5 µM in data set [5] (setting [19]) and not above 10 µM in [7]. In addition, the IC100 in data set [6] is more than 12.5 µM; in data set [8], not above 12.5 µM; in data set [9], not above 12.5 µM.
